Measurements from ChEMBL document CHEMBL2321828, “Interrogation of the Active Sites of Protein Arginine Deiminases (PAD1, -2, and -4) Using Designer Probes” (ACS Med Chem Lett, 2013).

How the values were obtained:
[1] = biological target: Protein-arginine deiminase type-2 (Mus musculus) (UniProt Q08642); test: Ratio of Kinact to Ki for mouse PAD2 using BAEE as substrate after 30 mins
[2] = biological target: Protein-arginine deiminase type-4 (Homo sapiens) (UniProt Q9UM07); test: Ratio of Kinact to Ki for human PAD4 using BAEE as substrate after 30 mins
[3] = biological target: T1, Protein-arginine deiminase type-1 (Homo sapiens) (UniProt Q9ULC6); test: Ratio of Kinact to Ki for human PAD1 using BAEE as substrate after 30 mins
T1 sequence (whole entry): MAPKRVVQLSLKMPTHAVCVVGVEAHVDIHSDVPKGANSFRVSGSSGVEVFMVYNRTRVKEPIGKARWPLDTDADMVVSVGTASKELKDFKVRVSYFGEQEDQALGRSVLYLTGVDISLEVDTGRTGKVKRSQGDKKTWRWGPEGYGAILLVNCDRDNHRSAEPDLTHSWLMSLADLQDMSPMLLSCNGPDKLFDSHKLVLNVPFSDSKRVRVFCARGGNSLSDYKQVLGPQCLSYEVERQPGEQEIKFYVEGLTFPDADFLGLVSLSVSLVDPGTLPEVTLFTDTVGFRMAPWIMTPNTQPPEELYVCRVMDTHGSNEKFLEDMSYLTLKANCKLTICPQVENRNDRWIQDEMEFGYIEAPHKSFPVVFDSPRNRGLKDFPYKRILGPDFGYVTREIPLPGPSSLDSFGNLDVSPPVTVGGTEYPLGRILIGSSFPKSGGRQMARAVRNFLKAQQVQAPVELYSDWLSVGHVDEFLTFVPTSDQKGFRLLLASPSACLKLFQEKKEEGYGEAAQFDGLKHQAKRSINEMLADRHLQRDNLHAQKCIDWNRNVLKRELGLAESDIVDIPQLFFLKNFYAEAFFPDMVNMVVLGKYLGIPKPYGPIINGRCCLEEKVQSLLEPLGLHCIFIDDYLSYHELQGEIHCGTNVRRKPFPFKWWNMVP

Sequence of Protein-arginine deiminase type-4 (Homo sapiens) (Q9UM07 whole entry): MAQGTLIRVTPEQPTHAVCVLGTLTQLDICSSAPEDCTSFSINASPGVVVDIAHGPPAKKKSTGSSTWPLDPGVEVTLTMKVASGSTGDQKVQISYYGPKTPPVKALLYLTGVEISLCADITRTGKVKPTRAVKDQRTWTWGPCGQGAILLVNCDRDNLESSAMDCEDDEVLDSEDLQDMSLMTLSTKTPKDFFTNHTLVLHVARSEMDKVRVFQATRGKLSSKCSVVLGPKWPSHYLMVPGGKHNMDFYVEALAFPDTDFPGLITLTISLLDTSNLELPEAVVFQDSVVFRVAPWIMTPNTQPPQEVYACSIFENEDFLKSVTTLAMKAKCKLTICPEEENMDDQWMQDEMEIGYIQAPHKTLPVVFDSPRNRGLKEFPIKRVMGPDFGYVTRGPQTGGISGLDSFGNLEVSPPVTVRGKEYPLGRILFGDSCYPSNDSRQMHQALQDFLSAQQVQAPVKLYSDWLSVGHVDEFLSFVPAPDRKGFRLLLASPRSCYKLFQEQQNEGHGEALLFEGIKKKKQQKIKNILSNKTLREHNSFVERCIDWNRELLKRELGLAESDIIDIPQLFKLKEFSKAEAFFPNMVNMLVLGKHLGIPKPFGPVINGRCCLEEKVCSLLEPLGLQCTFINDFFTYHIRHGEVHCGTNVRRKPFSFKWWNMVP
Sequence of Protein-arginine deiminase type-2 (Mus musculus) (Q08642 whole entry): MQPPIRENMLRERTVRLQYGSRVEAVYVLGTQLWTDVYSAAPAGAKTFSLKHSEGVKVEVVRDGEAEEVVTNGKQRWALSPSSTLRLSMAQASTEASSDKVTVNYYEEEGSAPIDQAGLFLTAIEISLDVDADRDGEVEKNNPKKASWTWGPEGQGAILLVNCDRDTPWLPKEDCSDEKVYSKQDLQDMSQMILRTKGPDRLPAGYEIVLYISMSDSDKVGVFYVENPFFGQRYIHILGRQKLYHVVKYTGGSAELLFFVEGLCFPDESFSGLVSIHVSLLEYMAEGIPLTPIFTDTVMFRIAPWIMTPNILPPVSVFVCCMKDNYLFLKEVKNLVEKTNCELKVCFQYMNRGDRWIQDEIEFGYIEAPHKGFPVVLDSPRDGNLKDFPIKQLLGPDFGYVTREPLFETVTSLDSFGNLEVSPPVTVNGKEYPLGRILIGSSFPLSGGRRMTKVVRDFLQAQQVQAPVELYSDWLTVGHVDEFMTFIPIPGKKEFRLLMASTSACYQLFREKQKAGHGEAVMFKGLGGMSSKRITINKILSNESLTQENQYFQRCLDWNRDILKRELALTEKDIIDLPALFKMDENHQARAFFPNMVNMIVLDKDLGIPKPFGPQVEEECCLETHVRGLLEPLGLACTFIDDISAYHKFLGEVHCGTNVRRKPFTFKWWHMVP

Ratio [1] | Ratio [2] | Ratio [3] | Structure (SMILES)
9 M⁻¹ min⁻¹ | 60 M⁻¹ min⁻¹ | 32 M⁻¹ min⁻¹ | N=C(N)CCl
167 M⁻¹ min⁻¹ | 865 M⁻¹ min⁻¹ | 497 M⁻¹ min⁻¹ | COC(=O)[C@H](CCCNC(=N)CCl)NC(C)=O
120 M⁻¹ min⁻¹ | 50 M⁻¹ min⁻¹ | 62 M⁻¹ min⁻¹ | COC(=O)[C@H](CCCCNC(=N)CCl)NC(C)=O
50 M⁻¹ min⁻¹ | 183 M⁻¹ min⁻¹ | 111 M⁻¹ min⁻¹ | COC(=O)[C@H](CCNC(=N)CCl)NC(C)=O
